Measurements: patent US6949536B2, “Sulfonylbenzene compounds as anti-inflammatory/analgesic agents” (Pfizer, Inc., priority 1998, dated 2005)
Structures can show the parent of a compound that is named as a salt.

| SMILES | melting point |
| --- | --- |
| CS(=O)(=O)c1ccc(-n2nc(C(F)(F)F)cc2-c2ccc(-c3cc4ccccc4o3)cc2)cc1 [Example 4, 1-[4-(Methylsulfonyl)phenyl]-5-[4-(benzo[b]furan-2-yl)phenyl]-3-trifluoromethyl-1H-pyrazole] | 137 to 138 °C |
| CS(=O)(=O)c1ccc(-n2nc(C(F)(F)F)cc2-c2ccc(-c3ccoc3)cc2)cc1 [Example 20, 1-[4-(Methylsulfonyl)phenyl]-5-[4-(3-furyl)phenyl]-3-trifluoromethyl-1H-pyrazole] | 165 to 166 °C |
| CS(=O)(=O)c1ccc(-n2nc(C(F)(F)F)cc2-c2ccc(-c3nccs3)cc2)cc1 [Example 22, 1-[4-(Methylsulfonyl)phenyl]-5-[4-(2-thiazolyl)phenyl]-3-trifluoromethyl-1H-pyrazole] | 206 to 207 °C |
| CS(=O)(=O)c1ccc(-n2nc(C(F)(F)F)cc2-c2ccc(-c3cncs3)cc2)cc1 [Example 24, 1-[4-(Methylsulfonyl)phenyl]-5-[4-(5-thiazolyl)phenyl]-3-trifluoromethyl-1H-pyrazole] | 169 to 170 °C |
| CS(=O)(=O)c1ccc(C2=C(c3ccc(-c4ccsc4)cc3)C(=O)OC2)cc1 [Example 32, 3-[4-(3-Thienyl)phenyl]4-[4-(methylsulfonyl)phenyl]-2-(5H)-furanone] | 220 to 222 °C |
| CS(=O)(=O)c1ccc(C2=C(c3ccc(-c4cccs4)cc3)C(=O)OC2)cc1 [Example 33, 3-[4-(2-Thienyl)phenyl]-4-[4-(methylsulfonyl)phenyl]-2-(5H)-furanone] | 198 to 201 °C |
| CS(=O)(=O)c1ccc(C2=C(c3ccc(-c4ccoc4)cc3)C(=O)OC2)cc1 [Example 34, 3-[4-(3-Furyl)phenyl]-4-[4-(methylsulfonyl)phenyl]-2-(5H)-furanone] | 188 to 190 °C |
| Cc1ccc(-c2ccc(S(C)(=O)=O)c(F)c2)n1-c1ccc(-c2ccco2)cc1 [Example 35, 5-[3-Fluoro-4-(methylsulfonyl)phenyl]-1-[4-(2-furyl)phenyl]-2-methyl-1H-pyrrole] | 179 to 182 °C |
| Cc1ccc(-c2ccc(S(C)(=O)=O)c(F)c2)n1-c1ccc(-c2ccoc2)cc1 [Example 36, 5-[3-Fluoro-4-(methylsulfonyl)phenyl]-1-[4-(3-furyl)phenyl]-2-methyl-1H-pyrrole] | 147 to 150 °C |
| Cc1ccc(-c2ccc(S(C)(=O)=O)cc2)n1-c1ccc(-c2ccoc2)cc1 [Example 38, 5-[4-(Methylsulfonyl)phenyl]-1-[4-(3-furyl)phenyl]-2-methyl-1H-pyrrole] | 200 to 202 °C |
| Cc1cc(-n2c(C)ccc2-c2ccc(S(C)(=O)=O)cc2)ccc1-c1ccoc1 [Example 39, 1-[4-(3-Furyl)-3-methylphenyl]-2-methyl-5-[4-(methylsulfonyl)phenyl]-1H-pyrrole] | 69 to 75 °C |
| Cc1cc(-n2c(C)ccc2-c2ccc(S(C)(=O)=O)cc2)ccc1-c1ccco1 [Example 40, 1-[4-(2-Furyl)-3-methylphenyl]-2-methyl-5-[4-(methylsulfonyl)phenyl]-1H-pyrrole] | 160 to 162 °C |

The remaining lines, values ahead:

| melting point | SMILES |
| --- | --- |
| 192.6 °C | NS(=O)(=O)c1ccc(-n2nc(C(F)(F)F)cc2-c2ccc(-c3ccco3)cc2)cc1Cl (as salt: hydrochloride) [Example 144, 2-Chloro-4-[5-[4-(2-furyl)phenyl]-3-(trifluoromethyl)-1H-pyrazol-1-yl]benzenesulfonamide] |
| 87 to 89 °C | Cc1cc(S(N)(=O)=O)ccc1-n1nc(C(F)(F)F)cc1-c1ccc(-c2ccco2)cc1 (as salt: hydrochloride) [Example 145, 4-[5-[4-(2-Furyl)phenyl]-3-(trifluoromethyl)-1H-pyrazol-1-yl]-3-methylbenzenesulfonamide] |
| 206.7 °C | COc1cc(-n2nc(C(F)(F)F)cc2-c2ccc(-c3ccco3)cc2)ccc1S(N)(=O)=O (as salt: hydrochloride) [Example 148, 4-[5-[4-(2-Furyl)phenyl]-3-(trifluoromethyl)-1H-pyrazol-1-yl]-2-methoxybenzenesulfonamide] |
| 135 to 139 °C | Cc1cc(-n2nc(C(F)(F)F)cc2-c2ccc(-c3ccco3)cc2)ccc1S(C)(=O)=O (as salt: hydrochloride) [Example 157, 5-[4-(2-Furyl)phenyl]-1-[3-methyl-4-(methylsulfonyl)phenyl]-3-(trifluoromethyl)-1H-pyrazole] |
| 224 to 226 °C | NS(=O)(=O)c1ccc(-n2nc(C(F)(F)F)cc2-c2ccc(-c3cscn3)c(O)c2)cc1F (as salt: hydrochloride) [Example 174, 2-Fluoro-4-[5-[3-hydroxy-4-(1,3-thiazol-4-yl)phenyl]-3-(trifluoromethyl)-1H-pyrazol-1-yl]benzenesulfonamide] |
| 97 to 99 °C | COc1cc(-c2cc(C(F)(F)F)nn2-c2ccc(S(N)(=O)=O)c(F)c2)ccc1-c1cscn1 (as salt: hydrochloride) [Example 175, 2-Fluoro-4-[5-[3-methoxy-4-(1,3-thiazol-4-yl)phenyl]-3-(trifluoromethyl)-1H-pyrazol-1-yl]benzenesulfonamide] |
| 204.3 °C | Cc1cc(-c2ccnn2-c2ccc(S(N)(=O)=O)c(F)c2C(F)F)ccc1-c1cscn1 (as salt: hydrochloride) [Example 195, 3-(Difluoromethyl)-2-fluoro-4-[5-[3-methyl-4-(1,3-thiazol-4-yl)phenyl]-1H-pyrazol-1-yl]benzenesulfonamide] |
| 174.7 °C | Cc1cc(-c2cscn2)ccc1-c1cc(C(F)(F)F)nn1-c1ccc(S(C)(=O)=O)cc1 (as salt: methanesulfonate) [Example 186, 1-[4-(Methylsulfonyl)phenyl]-5-[2-methyl-4-(4-thiazolyl)phenyl]-3-trifluoromethyl-1H-pyrazole] |
| 131.9 °C | Cc1cc(-c2cscn2)ccc1-c1cc(C(F)(F)F)nn1-c1ccc(S(C)(=O)=O)c(F)c1 (as salt: methanesulfonate) [Example 187, 1-[3-Fluoro4-(methylsulfonyl)phenyl]-5-[2-methyl-4-(4-thiazolyl)phenyl]-3-trifluoromethyl-1H-pyrazole] |
| 165 to 168 °C | Cc1ccc(-c2ccc(S(C)(=O)=O)cc2)n1-c1ccc(-c2ccoc2)c(Cl)c1 [Example 41, 1-[3-Chloro-4-(3-furyl)phenyl]-2-methyl-5-[4-(methylsulfonyl)phenyl]-1H-pyrrole] |
| 127 to 131 °C | Cc1ccc(-c2ccc(S(C)(=O)=O)cc2)n1-c1ccc(-c2ccco2)c(Cl)c1 [Example 42, 1-[3-Chloro-4-(2-furyl)phenyl]-2-methyl-5-[4-(methylsulfonyl)phenyl]-1H-pyrrole] |
| 145 to 147 °C | Cc1ccc(-c2ccc(S(C)(=O)=O)cc2)n1-c1ccc(-c2ccco2)cc1 [Example 44, 1-[4-(2-Furyl)phenyl]-2-methyl-5-[4-(methylsulfonyl)phenyl]-1H-pyrrole] |
| 185 to 186 °C | Cc1ccc(-c2ccc(S(C)(=O)=O)cc2)n1-c1ccc(-c2cccs2)cc1 [Example 45, 2-Methyl-5-[4-(methylsulfonyl)phenyl]-1-[4-(2-thienyl]phenyl]-1H-pyrrole] |
| 187 to 188 °C | Cc1ccc(-c2ccc(S(C)(=O)=O)cc2)n1-c1ccc(-c2ccsc2)cc1 [Example 46, 2-Methyl-5-[4-(methylsulfonyl)phenyl]-1-[4-(3-thienyl)phenyl]-1H-pyrrole] |
